The record followed here is publication PMC9097471, “Development of Selective Phosphatidylinositol 5-Phosphate 4-Kinase γ Inhibitors with a Non-ATP-competitive, Allosteric Binding Mode” (Journal of Medicinal Chemistry, 2022).

For series [1], the target named is T1, PI5P4Kγ-WT (Homo sapiens, UniProt Q8TBX8).
T1 sequence (Q8TBX8 1-421): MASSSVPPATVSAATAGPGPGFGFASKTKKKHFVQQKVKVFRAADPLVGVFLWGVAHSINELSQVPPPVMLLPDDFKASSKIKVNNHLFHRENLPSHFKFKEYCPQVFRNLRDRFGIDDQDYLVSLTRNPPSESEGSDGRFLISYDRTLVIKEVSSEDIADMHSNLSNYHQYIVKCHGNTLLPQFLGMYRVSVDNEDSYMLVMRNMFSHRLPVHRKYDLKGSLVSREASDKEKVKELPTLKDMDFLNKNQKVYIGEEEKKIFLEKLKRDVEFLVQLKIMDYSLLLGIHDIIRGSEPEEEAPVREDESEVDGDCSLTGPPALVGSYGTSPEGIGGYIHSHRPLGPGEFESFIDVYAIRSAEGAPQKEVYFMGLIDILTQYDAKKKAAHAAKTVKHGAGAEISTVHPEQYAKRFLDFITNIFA
The experiment in a line: InCell Pulse cellular target engagement (thermal stabilisation) in HEK293 cells. In kind it is cell-based. The protocol: The binding of compounds to PI5P4Kγ in intact cells was assessed using an InCell Pulse thermal stabilisation assay (DiscoverX). […] The plate was then incubated for 60 min in the dark prior to luminescence reading using a Pherastar FSX plate reader (BMG Labtech).
Statistical analysis was performed using nonparametric testing in Prism 8 (GraphPad). Activity pIC50 values and in vivo binding pEC50 values were estimated using a 4-parameter fit (Dotmatics).

A short description of another series: Caco-2 cell permeability. In kind it is in vitro ADME. As to conditions: human; for Papp A→B at 1 h, 10 µM: Caco-2, apical-to-basolateral; for efflux ratio at 1 h, 10 µM: Caco-2 efflux ratio (B-A/A-B), read-out: ER. On the procedure: Permeability: bi-directional Caco-2 cell permeability was performed by Charles River Laboratories Inc. (ADME-SOP-49). Briefly, compounds were administered at 10 µM (1% DMSO final) to the apical or basolateral side of a polarised Caco-2 cell monolayer, then incubated at 37 °C for 60 minutes before appearance on the opposite side of the monolayer was determined by mass spectrometry. The efflux ratio (ER) is calculated from the ratio of B-A […]
On the technique in general: Caco-2 cells form a polarised layer with tight junctions and transporters.

Another series deals with T2, PI5P4Kα (Homo sapiens, UniProt P48426).
T2 sequence (P48426 1-406): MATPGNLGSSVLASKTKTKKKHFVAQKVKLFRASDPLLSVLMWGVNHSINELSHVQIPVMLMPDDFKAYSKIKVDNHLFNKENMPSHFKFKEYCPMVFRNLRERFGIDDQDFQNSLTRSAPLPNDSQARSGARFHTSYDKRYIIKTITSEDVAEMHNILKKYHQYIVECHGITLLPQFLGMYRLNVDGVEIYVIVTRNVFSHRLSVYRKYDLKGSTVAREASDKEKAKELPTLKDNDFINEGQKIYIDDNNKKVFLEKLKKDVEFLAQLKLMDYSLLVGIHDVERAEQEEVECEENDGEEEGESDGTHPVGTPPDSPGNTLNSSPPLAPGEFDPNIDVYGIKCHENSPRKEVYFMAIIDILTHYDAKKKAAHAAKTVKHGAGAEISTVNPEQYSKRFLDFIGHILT
The experiment in a line: Adapta TR-FRET assay (Thermo Fisher). In kind it is biochemical. The arrangement: purchased Thermo Fisher. On the procedure: Table S7. PI5P4Kα adapta assay results for compounds 1 and 40.a
Compound PI5P4Kα adapta IC50 (nM) […]
a The experiments were run by Thermo Fisher. This assay is a TR-FRET based assay using an Eu-anti-ADP antibody, the conditions are: the 2X PIP4Kα/PI(5)P mixture is prepared in 50 mM HEPES pH 7.5, 0.1% CHAPS, 1 mM EGTA, 4 mM MgCl2. The final 10 μL Kinase Reaction consists of 1.5 - 6 ng PIP4Kα and 50 μM PI(5)P in 32.5 mM HEPES pH 7.5, 0.05% CHAPS, 0.5 mM EGTA, 2 mM MgCl2. After the 1 hour Kinase Reaction incubation, 5 μL of Detection Mix is added. The Detection mix consists of EDTA (30mM), Eu-anti-ADP antibody (6 nM) and ADP tracer in TR-FRET buffer. The detection mix contains the EC60 concentration of tracer for 5-

For a further series, the target named is T3, PI5P4Kβ-WT (Homo sapiens, UniProt P78356).
T3 sequence (P78356 1-416): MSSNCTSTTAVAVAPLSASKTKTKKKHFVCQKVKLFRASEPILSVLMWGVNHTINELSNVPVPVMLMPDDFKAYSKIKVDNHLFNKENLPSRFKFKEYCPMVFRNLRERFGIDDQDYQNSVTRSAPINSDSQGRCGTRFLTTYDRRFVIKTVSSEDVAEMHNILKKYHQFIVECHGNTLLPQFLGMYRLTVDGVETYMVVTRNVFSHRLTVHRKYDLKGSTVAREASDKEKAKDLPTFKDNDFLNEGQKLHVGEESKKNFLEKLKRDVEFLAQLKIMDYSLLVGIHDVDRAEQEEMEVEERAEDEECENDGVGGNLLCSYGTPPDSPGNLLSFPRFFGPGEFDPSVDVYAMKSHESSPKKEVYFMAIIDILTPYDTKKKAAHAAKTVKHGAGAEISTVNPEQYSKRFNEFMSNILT
The experiment in a line: ADP-Glo inhibition assay. The note with it: ADP-Glo. (In general: In ADP-Glo the light output rises with the ADP produced.)

The next series addresses T4, PI5P4Kα-WT (Homo sapiens, UniProt P48426).
T4 sequence (P48426 1-406): T2 sequence (P48426 1-406)
The experiment in a line: ADP-Glo inhibition assay. As to conditions: ADP-Glo.

Series [2] concerns the target T1, PI5P4Kγ-WT. The experiment in a line: Thermal shift assay. As to conditions: read-out: ΔTm PI5P4Kγ WT, thermal shift, compound 63 μM.
The nature of a further series: Kinetic solubility. The format is physicochemical. The note with it: PBS buffer, PBS pH 7.4. The protocol: Kinetic solubility analysis was performed by Charles River Laboratories Inc. (ADME-SOP-01). Compound in
DMSO at 10 mM was diluted to 200 µM in both DMSO and buffer (0.1 M PBS, pH 7.4, 2% DMSO final), and
an aliquot of the 200 µM DMSO solution was diluted to 10 µM, and all dilutions were equilibrated for 2 hours. […]
Compound 9 was purchased from Am binter (Amb16536894) and was determined by UPLC to have purity >95%.
All other compounds were synthesised as described below , and all tested compounds have purity >95% by UPLC

SMILES strings stand for the structures. Converted amounts (≈) assume the structure as drawn.

Text for PI5P4Kα-WT: (§1) To enable direct comparisons, Promega’s ADP-Glo reporter assay was developed using a mutant form of the kinase. […] To mitigate concerns about being misled by the use of the PI5P4Kγ+ construct and the possible introduction of PI5P4Kα activity into the molecules, our screening cascade included the measurement of ADP-Glo activity at PI5P4Kα-WT (and PI5P4Kβ-WT to fully understand emerging selectivity profiles).
Text for PI5P4Kβ-WT: as §1

Take `FC(F)(F)c1ccccc1-c1nc(NCc2cccs2)c2ccccc2n1` [Compound 1, NIH-12848, reference compound]: the IC50 (usually the point on the concentration scale where inhibition reaches its midpoint) was 2.5 µM on PI5P4Kγ-WT [1] (InCell Pulse, new data); over 30 µM at PI5P4Kα; over 25 µM at PI5P4Kβ-WT (read-out: PI5P4Kβ IC50, new data); over 50 µM at PI5P4Kα-WT (read-out: PI5P4Kα IC50, new data). The Papp A→B (usually the apparent permeability from the apical to the basolateral side of a cell layer) at 1 h, 10 µM in the series “Caco-2 cell permeability” was 6.4 ×10⁻⁶ cm/s. The efflux ratio at 1 h, 10 µM in the series “Caco-2 cell permeability” is 0.9. In addition, the “PI5P4Kβ pIC50” value on PI5P4Kβ-WT was under 4.6. For the same molecule, the “PI5P4Kα pIC50” value on PI5P4Kα-WT was under 4.3. Moreover, the ΔTm at 63 µM on PI5P4Kγ-WT [2] turned out to be 4.7 °C. Further, the solubility (usually the concentration that dissolves in the medium under given conditions) at 2 h in the series “Kinetic solubility” was under 5 µM.

On to `CC(C)c1ccccc1-c1nc(NCc2ccccn2)c2c(ccn2C)n1` [Compound 40], for which, at PI5P4Kγ-WT [1] (InCell Pulse), the “cellular target engagement with PI5P4Kγ-WT” value was “submicromolar activity”. Further, at PI5P4Kγ-WT [1] (InCell Pulse in intact cells), the “Target engagement PI5P4Kγ WT pIC50” value is 6.1. In addition, in “Caco-2 cell permeability”, the Papp A→B at 1 h, 10 µM turned out to be 122 ×10⁻⁶ cm/s and the efflux ratio at 1 h, 10 µM amounted to 0.4. At PI5P4Kα, this molecule gave an IC50 of over 30 µM. In addition, the “PI5P4Kβ pIC50” value at PI5P4Kβ-WT was under 4.6. Besides, the “PI5P4Kα pIC50” value on PI5P4Kα-WT is on record as under 4.3. In addition, the ΔTm at 63 µM at PI5P4Kγ-WT [2] stood at 6.9 °C. The amount in solution in the series “Kinetic solubility” (solubility at 2 h) came to 7 µM (≈ 2.5 µg/mL).
